Test results reported in patent US10456388B2, “Antihistamine for use in treatment of breast cancer” (BELINA PHARMA AB, priority 2015, dated 2019).
Where two headings read alike, the source gives them in different places.

Key:
women with invasive BC [1] = settings: for BC specific survival compared to controls (Kaplan-Meier, univariate): ever-use model, FIGS. 1 to 3; for Dead in BC (Yes): groups by main antihistamine used, all patients from 2000-2008
women with invasive BC [2] = settings: for HR (CI), late entry model: adjusted for age at BC diagnosis and TN; for Dead in BC (Yes): groups by main antihistamine used, patients from 1st of Jul. 2005-31st of Dec. 2008; for BC specific survival compared to controls (Kaplan-Meier, univariate) / Hazard ratio Exp(B), ER Negative Breast Cancer / Hazard ratio Exp(B), ER Positive Breast Cancer: late entry model; for BC specific survival compared to controls (Kaplan-Meier, univariate): FIGS. 4 and 5; for Hazard ratio Exp(B), ER Negative Breast Cancer / Hazard ratio Exp(B), ER Positive Breast Cancer / Hazard ratio Exp(B), Cox proportional hazard - late entry model: adjusted for age at BC diagnosis and TN-stage; for Hazard ratio Exp(B), Cox proportional hazard - late entry model: ever-use vs controls, cases before 1st of Jul. 2005 and unknown N-status censored, Table 5
breast cancer cases = test: Replication study, extended breast cancer material Swedish Cancer Registry 2000-2013 (n=103 500 cases), late entry models; type: in vivo, human; settings: for Breast cancer survival HR / Overall survival HR: use after diagnosis, adjusted for age, tumour stage, late entry models; for BC survival HR: extended study, real patient data; for Survival of users compared with non-users, in words: replication study, Table 10; for Breast cancer survival HR by desloratadine use: late entry model
Experimental: Using an extended breast cancer material of all cases from the Swedish Cancer Registry 2000-2013 (n=103 500 cases) linking the data with the Drug Prescription Registry a replication study was carried out. The data from this extended study can be found in Tables 10 and 11. With the larger set of data, the effect for each individual antihistamine becomes more pronounced.
Using an extended breast cancer material of all cases from the Swedish Cancer Registry 2000-2013 (n=103 500 cases) linking the data with the Drug Prescription Registry a replication study was carried out. The data from this extended study are represented in tables 10 and 11.
Using an extended breast cancer material of all cases from the Swedish Cancer Registry 2000-2013 (n=103 500 cases) linking the data with the Drug Prescription Registry, a replication study was carried out, as shown in table 10.

[3] = multi dose studies with 100 mg per day; cited from earlier work
[4] = Survival 2009-2014 (title: 2009-2013)

SMILES | BC specific survival compared to controls (Kaplan-Meier, univariate) (women with invasive BC [1]) | Dead in BC (Yes) (women with invasive BC [1]) [%] | HR (CI), late entry model (women with invasive BC [2]) | Dead in BC (Yes) (women with invasive BC [2]) [%] | BC specific survival compared to controls (Kaplan-Meier, univariate) (women with invasive BC [2]) | Breast cancer survival HR (breast cancer cases; Survival 2005-2008) | Overall survival HR (breast cancer cases; Survival 2005-2008) | Breast cancer survival HR (breast cancer cases; [4]) | Overall survival HR (breast cancer cases; [4]) | BC survival HR (breast cancer cases) | Survival of users compared with non-users, in words (breast cancer cases) | Hazard ratio Exp(B), ER Negative Breast Cancer (women with invasive BC [2]) | Hazard ratio Exp(B), ER Positive Breast Cancer (women with invasive BC [2]) | Hazard ratio Exp(B), Cox proportional hazard - late entry model (women with invasive BC [2]) | Effect on breast cancer survival rate by treatment period (FIG. 7) (women with invasive BC [2]; use only after the BC diagnosis) | Effect on breast cancer survival rate by treatment period (FIG. 7) (women with invasive BC [2]; use only before the BC diagnosis) | Breast cancer survival HR by desloratadine use (breast cancer cases; <400 days use vs never) | Survival HR, users compared with non users (breast cancer cases; years before 2009) | Breast cancer survival HR by desloratadine use (breast cancer cases; ≥400 days use vs never) | Clinical side effects [3]
CN1CCC[C@@H]1CCO[C@](C)(c1ccccc1)c1ccc(Cl)cc1 [Klemastine, klemastine] | clear, statistically significant, longer BC specific survival | 13.8 | 0.98 (0.80-1.19) | 14.3 | non-statistically significant longer BC specific survival | 1.43 | 2.07 | 0.94 | 1.08 | 1.12 | negatively affects survival |  |  |  |  |  |  |  |  | 
O=C(O)COCCN1CCN(C(c2ccccc2)c2ccc(Cl)cc2)CC1 (centres unmarked) [Cetirizine, cetirizine] | initially had a higher survival percentage compared to controls, but with time it became lower compared to controls | 18.0 | 1.13 (0.96-1.33) | 16.5 | non-statistically significant longer BC specific survival | 1.08 | 1.41 | 1.21 | 1.09 | 1.28 | negatively affects survival | 1.491 | 2.166 | 1.194 |  |  |  |  |  | 
CC(C)(C(=O)O)c1ccc(C(O)CCCN2CCC(C(O)(c3ccccc3)c3ccccc3)CC2)cc1 (centres unmarked) [Fexofenadine, fexofenadine] | clear, statistically significant, longer BC specific survival | 9.0 | 0.73 (0.30-1.76) | 11.6 | non-statistically significant longer BC specific survival | 1.20 | 1.40 | 0.85 | 0.65 |  |  | .316 | .826 | .802 |  |  |  |  |  | 
Clc1ccc2c(c1)CCc1cccnc1C2=C1CCNCC1 [Desloratadine, desloratadine] | clear, statistically significant, longer BC specific survival | 7.1 |  | 8.1 | statistically significant longer BC specific survival | 0.47 | 0.47 | 0.74 | 0.71 |  | better overall and BC specific survival |  |  |  | clear positive effects can be shown | no positive effects on breast cancer survival rate can be established | 0.94 | 0.63 | 0.62 | 
CC(C)(C)c1ccc(C(=O)CCCN2CCC(OC(c3ccccc3)c3ccccc3)CC2)cc1 [Ebastin, ebastin] | clear, statistically significant, longer BC specific survival | 6.7 | 0.50 (0.22-1.12) | 5.7 | statistically significant longer BC specific survival | 0.25 | 0.48 | 0.75 | 0.91 |  | better overall and BC specific survival |  |  |  |  |  |  |  |  | did not show any further clinical side effects
CCOC(=O)N1CCC(=C2c3ccc(Cl)cc3CCc3cccnc32)CC1 [Loratadine, loratadine] | clear, statistically significant, longer BC specific survival | 11.7 | 0.74 (0.60-0.93) | 10.4 | statistically significant longer BC specific survival | 0.77 | 1.05 | 0.93 | 0.86 |  |  | .945 | 1.087 | .816 |  |  |  |  |  | 
